In general, GI50 refers to the concentration at which growth is held to half of that of the control. In general, TGI refers to the concentration at which net growth stops. A lower TGI goes with more potent growth arrest.

Test systems include ACHN renal; COLO 205 colon; HT29 colon; KM12 colon; MALME-3M melanoma; MDA-MB-435; NCI-H226 lung; RPMI-8226 leukemia; SF-539 CNS; SK-OV-3 ovarian.
Common to all, as to test: DTP human tumour cell line panel, 48 h

Values joined by “and” are separate entries in the source; they are usually repeats but may differ in a detail not shown here. Equal values may be shown once.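 Five concentrations, 48 hours, 96-well plates. GI50 is the concentration that inhibits growth by half. TGI: total growth inhibition.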 Some results are limits rather than exact numbers.

As for `Cc1ccc(O)cc1Nc1ccnc2ccc(S(C)(=O)=O)cc12`, the GI50 in the experiment on ACHN renal is 0.612 µM; with COLO 205 colon, 0.47 µM; in the experiment on HT29 colon, 0.433 µM; in the experiment with KM12 colon it was > 25 µM; in the experiment on MALME-3M melanoma, 0.892 µM; in the experiment on MDA-MB-435, 4.92 µM. The GI50 is 5.05 µM in the experiment on NCI-H226 lung, > 25 µM with RPMI-8226 leukemia, 1.08 µM in the experiment with SF-539 CNS and 3.22 µM in the experiment with SK-OV-3 ovarian. The TGI in the experiment with ACHN renal was 7.75 µM; with COLO 205 colon, 2.83 µM; with HT29 colon, 2.92 µM; in the experiment on KM12 colon, > 25 µM; with MALME-3M melanoma, 9.35 µM; in the experiment with MDA-MB-435, > 25 µM. Also, the TGI in the experiment on NCI-H226 lung is > 23.6 µM; in the experiment with RPMI-8226 leukemia it was > 25 µM; with SF-539 CNS, 7.62 µM; in the experiment with SK-OV-3 ovarian, > 25 µM.

Consider `COC1N(C2CC(O)C(CO)O2)C(=O)NC(=O)C1(F)Br` (centres undefined), for which the GI50 in the experiment with ACHN renal is 23.9 µM; with COLO 205 colon it was 42.6 µM; with HT29 colon, 14.9 µM; in the experiment on KM12 colon, 30.4 µM; in the experiment with MALME-3M melanoma, 35.1 µM; with NCI-H226 lung, > 88.3 µM. The GI50 is 34.1 µM with RPMI-8226 leukemia, 6.8 µM with SF-539 CNS and 99.4 µM in the experiment with SK-OV-3 ovarian. Also, the TGI is 50 µM and > 100 µM in the experiment with ACHN renal; 50 µM and > 100 µM in the experiment on COLO 205 colon; 50 µM and > 100 µM in the experiment with HT29 colon; 50 µM and > 100 µM with KM12 colon; 50 µM and > 100 µM in the experiment with MALME-3M melanoma; > 100 µM in the experiment on MDA-MB-435. The TGI in the experiment on NCI-H226 lung was > 100 µM; in the experiment with RPMI-8226 leukemia, 50 µM and > 100 µM; in the experiment with SF-539 CNS, 50 µM; with SK-OV-3 ovarian, > 100 µM.

`CCN1C(=S)N(CC)C2C1NC(=S)N2/N=C/C=C/c1ccccc1OC` (centres undefined): the GI50 with ACHN renal was 0.464 µM; in the experiment with COLO 205 colon, 0.312 µM; in the experiment on HT29 colon it was 0.33 µM; with KM12 colon, 0.27 µM; in the experiment with MALME-3M melanoma, 0.736 µM; in the experiment with MDA-MB-435, 0.0368 µM. Besides, the GI50 is 0.903 µM in the experiment with NCI-H226 lung, 0.377 µM in the experiment with RPMI-8226 leukemia, 0.194 µM with SF-539 CNS and 0.505 µM in the experiment on SK-OV-3 ovarian. The TGI in the experiment on ACHN renal amounted to 40.5 µM; in the experiment with COLO 205 colon, 1.27 µM; with HT29 colon, 14.4 µM; in the experiment on KM12 colon it was 15.8 µM; with MALME-3M melanoma, 63 µM; in the experiment on MDA-MB-435, 0.177 µM. The TGI was > 39.3 µM in the experiment on NCI-H226 lung, 7.08 µM in the experiment on RPMI-8226 leukemia, 0.541 µM in the experiment with SF-539 CNS and > 100 µM in the experiment with SK-OV-3 ovarian.

For `O=C1/C(=C/c2ccc(Cl)c(Cl)c2)CN(C(=O)CCN2CCC(=NO)CC2)C/C1=C\c1ccc(Cl)c(Cl)c1`, the GI50 was 0.641 µM in the experiment on ACHN renal; 0.391 µM in the experiment with COLO 205 colon; 0.328 µM in the experiment on HT29 colon; 0.368 µM with KM12 colon; 1.32 µM with MALME-3M melanoma; 0.827 µM with MDA-MB-435. In addition, the GI50 is 1.26 µM in the experiment on NCI-H226 lung, 0.253 µM in the experiment on RPMI-8226 leukemia, 0.753 µM in the experiment with SF-539 CNS and 1.85 µM with SK-OV-3 ovarian. The TGI in the experiment on ACHN renal worked out at 1.62 µM; in the experiment on COLO 205 colon, 1.54 µM; in the experiment on HT29 colon it was 1.25 µM; in the experiment on KM12 colon, 1.14 µM; in the experiment on MALME-3M melanoma it was 2.78 µM; with MDA-MB-435, 2.12 µM. Besides, the TGI was 2.53 µM in the experiment with NCI-H226 lung, 0.84 µM with RPMI-8226 leukemia, 1.97 µM with SF-539 CNS and 3.48 µM with SK-OV-3 ovarian.

`CC(Br)C(=O)NC(CO)C(=O)O` (centres undefined): the TGI in the experiment on ACHN renal, with COLO 205 colon, with HT29 colon, with KM12 colon, in the experiment with MALME-3M melanoma and in the experiment on MDA-MB-435 was > 100 µM throughout. In addition, the TGI in the experiment on NCI-H226 lung, with RPMI-8226 leukemia, with SF-539 CNS and in the experiment on SK-OV-3 ovarian was > 100 µM each time.

In the case of `Cc1nn(-c2ccc(Cl)cc2)c2ncnc(N/N=C/c3ccccc3O)c12`, the 50% growth inhibitory concentration (GI50) in the experiment on ACHN renal is 0.362 µM and 0.322 µM; in the experiment on COLO 205 colon, 0.776 µM and 0.398 µM; with HT29 colon, 2.43 µM and 1.62 µM; in the experiment with KM12 colon, 0.53 µM and 0.385 µM; with MALME-3M melanoma, 1.19 µM and 0.508 µM; in the experiment on MDA-MB-435 it was 1.1 µM and 0.571 µM. Also, the GI50 with NCI-H226 lung is 3.86 µM and 2.55 µM; with RPMI-8226 leukemia, 0.699 µM and 0.714 µM; in the experiment on SF-539 CNS, 0.484 µM and 0.455 µM; with SK-OV-3 ovarian it was 0.615 µM and 0.427 µM. In addition, the TGI in the experiment with ACHN renal is 12 µM and 10.5 µM; in the experiment with COLO 205 colon it was > 46.2 µM and 27.6 µM; in the experiment on HT29 colon, > 100 µM; with KM12 colon it was > 100 µM; with MALME-3M melanoma it was 9.56 µM and 7.85 µM; in the experiment with MDA-MB-435, > 100 µM. Further, the TGI in the experiment on NCI-H226 lung is 40.7 µM and > 29.5 µM; in the experiment with RPMI-8226 leukemia, > 100 µM; in the experiment on SF-539 CNS, 11.5 µM and 5.99 µM; in the experiment with SK-OV-3 ovarian it was 26.5 µM and 10.8 µM.

For the origin of these results see PubChem BioAssay (NCI).
